Type in all cases: cell-based
Test [1] concerns P/Q-type channels (α1A+α2δ+β1b cDNA subunits). Nature of the test: Whole cell patch clamp, tonic and frequency dependent block, P/Q-type channels in HEK 293 (Example 5). Conditions: in general. On the procedure: (§1) N-type calcium channel blocking activity was assayed in human embryonic kidney cells, HEK 293, stably transfected with the rat brain N-type calcium channel subunits (α1B+α2δ+β1b cDNA subunits). Alternatively, N-type calcium channels (α1B+α2δ+β1b cDNA subunits), L-type channels (α1C+α2δ+β1b cDNA subunits) and P/Q-type channels (α1A+α2δ+β1b cDNA subunits) were transiently expressed in HEK 293 cells. Briefly, cells were cultured in Dulbecco's modified eagle medium (DMEM) supplemented with 10% fetal bovine serum, 200 U/ml penicillin and 0.2 mg/ml streptomycin at 37° C. with 5% CO2. At 85% confluency cells were split with 0.25% trypsin/1 mM EDTA and plated at 10% confluency on glass coverslips. At 12 hours the medium was replaced and the cells transiently transfected using a standard calcium phosphate protocol and the appropriate calcium channel cDNAs. Fresh DMEM was supplied and the cells transferred to 28° C./5% CO2. Cells were incubated for 1 to 2 days to whole cell recording.
(§2) Whole cell patch clamp experiments were performed using an Axopatch 200B amplifier (Axon Instruments, Burlingame, Calif.) linked to a personal computer equipped with pCLAMP software. The external and internal recording solutions contained, respectively, 5 mM BaCl2, 1 mM MgCl2, 10 mM HEPES, 40 mM TEACl, 10 mM glucose, 87.5 mM CsCl (pH 7.2) and 108 mM CsMS, 4 mM MgCl2, 9 mM EGTA, 9 mM HEPES (pH 7.2). Currents were typically elicited from a holding potential of −80 mV to +10 mV using Clampex software (Axon Instruments). Typically, currents were first elicited with low frequency stimulation (0.03 Hz) and allowed to stabilize prior to application of the compounds. The compounds were then applied during the low frequency pulse trains for two to three minutes to assess tonic block, and subsequently the pulse frequency was increased to 0.2 Hz to assess frequency dependent block. Data were analyzed using Clampfit (Axon Instruments) and SigmaPlot 4.0 (Jandel Scientific).
(§3) Tables 2 and 3 show the results of similar experiments conducted with P/Q-type and L-type channels expressed in HEK 293 cells.
(In general: Patch clamp records ionic current or voltage across a cell membrane.)

Test [2] concerns the target P/Q-type channels (α1A+α2δ+β1b cDNA subunits) (UniProt P54282). The description is as above. On the procedure: as §1, §2, §3
The target of test [3] is T1, N-type calcium channels (α1B+α2δ+β1b cDNA subunits) (Rattus norvegicus, UniProt Q02294).
T1 construct: expressed in transfected cells
T1 sequence (Q02294 whole entry): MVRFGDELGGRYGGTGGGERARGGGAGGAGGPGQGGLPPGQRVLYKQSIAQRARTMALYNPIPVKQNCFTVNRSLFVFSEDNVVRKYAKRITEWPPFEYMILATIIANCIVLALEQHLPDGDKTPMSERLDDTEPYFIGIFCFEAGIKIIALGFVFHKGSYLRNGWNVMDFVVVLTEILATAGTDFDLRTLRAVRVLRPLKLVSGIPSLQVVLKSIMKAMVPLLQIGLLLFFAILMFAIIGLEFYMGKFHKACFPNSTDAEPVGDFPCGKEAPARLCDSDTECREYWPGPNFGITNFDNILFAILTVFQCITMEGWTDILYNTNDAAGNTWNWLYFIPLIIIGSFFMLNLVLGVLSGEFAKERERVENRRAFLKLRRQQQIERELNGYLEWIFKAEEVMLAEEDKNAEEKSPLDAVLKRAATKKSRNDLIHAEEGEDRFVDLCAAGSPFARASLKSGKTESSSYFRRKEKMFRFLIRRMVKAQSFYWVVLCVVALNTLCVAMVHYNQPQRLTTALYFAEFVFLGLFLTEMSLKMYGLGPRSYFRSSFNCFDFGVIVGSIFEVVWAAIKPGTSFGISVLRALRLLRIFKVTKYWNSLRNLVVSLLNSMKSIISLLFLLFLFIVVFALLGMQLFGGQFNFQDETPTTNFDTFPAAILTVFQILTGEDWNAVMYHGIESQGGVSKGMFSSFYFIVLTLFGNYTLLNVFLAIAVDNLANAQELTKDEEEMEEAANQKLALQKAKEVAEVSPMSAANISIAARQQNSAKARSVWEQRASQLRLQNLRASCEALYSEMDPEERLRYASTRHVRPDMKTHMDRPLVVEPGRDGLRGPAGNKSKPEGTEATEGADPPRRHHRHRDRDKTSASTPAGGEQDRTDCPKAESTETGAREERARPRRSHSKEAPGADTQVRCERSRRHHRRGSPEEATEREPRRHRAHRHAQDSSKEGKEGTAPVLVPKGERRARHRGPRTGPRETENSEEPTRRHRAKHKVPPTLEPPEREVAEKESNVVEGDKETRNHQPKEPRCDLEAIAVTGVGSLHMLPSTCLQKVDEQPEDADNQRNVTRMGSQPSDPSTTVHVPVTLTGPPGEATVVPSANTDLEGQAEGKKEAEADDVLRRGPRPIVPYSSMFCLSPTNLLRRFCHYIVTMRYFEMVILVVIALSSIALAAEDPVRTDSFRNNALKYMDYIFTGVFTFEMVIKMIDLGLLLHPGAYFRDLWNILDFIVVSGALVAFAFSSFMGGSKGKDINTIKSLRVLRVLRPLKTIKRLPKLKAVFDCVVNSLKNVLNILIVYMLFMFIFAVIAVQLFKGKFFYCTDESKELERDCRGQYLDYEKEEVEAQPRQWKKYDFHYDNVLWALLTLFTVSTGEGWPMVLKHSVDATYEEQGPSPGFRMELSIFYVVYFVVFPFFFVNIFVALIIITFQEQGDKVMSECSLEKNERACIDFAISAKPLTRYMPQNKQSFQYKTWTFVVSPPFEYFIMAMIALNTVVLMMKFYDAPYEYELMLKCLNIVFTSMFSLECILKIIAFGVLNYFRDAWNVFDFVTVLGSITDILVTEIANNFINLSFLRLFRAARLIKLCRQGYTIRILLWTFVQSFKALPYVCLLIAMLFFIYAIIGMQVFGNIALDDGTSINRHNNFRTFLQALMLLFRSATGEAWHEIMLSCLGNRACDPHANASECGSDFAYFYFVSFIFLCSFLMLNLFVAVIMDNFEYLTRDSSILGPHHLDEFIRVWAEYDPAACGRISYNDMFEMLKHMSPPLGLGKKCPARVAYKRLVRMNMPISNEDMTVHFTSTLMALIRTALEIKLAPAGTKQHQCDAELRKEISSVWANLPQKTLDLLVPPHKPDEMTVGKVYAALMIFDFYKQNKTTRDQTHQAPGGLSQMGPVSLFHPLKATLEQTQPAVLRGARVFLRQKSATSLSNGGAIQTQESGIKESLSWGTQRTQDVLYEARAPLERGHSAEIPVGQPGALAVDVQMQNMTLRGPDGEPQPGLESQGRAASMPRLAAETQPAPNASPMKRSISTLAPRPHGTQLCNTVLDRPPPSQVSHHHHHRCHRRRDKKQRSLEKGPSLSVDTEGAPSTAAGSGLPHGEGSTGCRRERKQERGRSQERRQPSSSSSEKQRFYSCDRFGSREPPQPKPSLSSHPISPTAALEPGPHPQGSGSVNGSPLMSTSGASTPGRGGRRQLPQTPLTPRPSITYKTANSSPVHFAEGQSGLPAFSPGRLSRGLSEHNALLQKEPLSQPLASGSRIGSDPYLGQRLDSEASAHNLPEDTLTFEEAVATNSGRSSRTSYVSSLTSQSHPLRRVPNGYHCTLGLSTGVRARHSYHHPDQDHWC
T1 sequence (P54290 25-944 partner limits assumed): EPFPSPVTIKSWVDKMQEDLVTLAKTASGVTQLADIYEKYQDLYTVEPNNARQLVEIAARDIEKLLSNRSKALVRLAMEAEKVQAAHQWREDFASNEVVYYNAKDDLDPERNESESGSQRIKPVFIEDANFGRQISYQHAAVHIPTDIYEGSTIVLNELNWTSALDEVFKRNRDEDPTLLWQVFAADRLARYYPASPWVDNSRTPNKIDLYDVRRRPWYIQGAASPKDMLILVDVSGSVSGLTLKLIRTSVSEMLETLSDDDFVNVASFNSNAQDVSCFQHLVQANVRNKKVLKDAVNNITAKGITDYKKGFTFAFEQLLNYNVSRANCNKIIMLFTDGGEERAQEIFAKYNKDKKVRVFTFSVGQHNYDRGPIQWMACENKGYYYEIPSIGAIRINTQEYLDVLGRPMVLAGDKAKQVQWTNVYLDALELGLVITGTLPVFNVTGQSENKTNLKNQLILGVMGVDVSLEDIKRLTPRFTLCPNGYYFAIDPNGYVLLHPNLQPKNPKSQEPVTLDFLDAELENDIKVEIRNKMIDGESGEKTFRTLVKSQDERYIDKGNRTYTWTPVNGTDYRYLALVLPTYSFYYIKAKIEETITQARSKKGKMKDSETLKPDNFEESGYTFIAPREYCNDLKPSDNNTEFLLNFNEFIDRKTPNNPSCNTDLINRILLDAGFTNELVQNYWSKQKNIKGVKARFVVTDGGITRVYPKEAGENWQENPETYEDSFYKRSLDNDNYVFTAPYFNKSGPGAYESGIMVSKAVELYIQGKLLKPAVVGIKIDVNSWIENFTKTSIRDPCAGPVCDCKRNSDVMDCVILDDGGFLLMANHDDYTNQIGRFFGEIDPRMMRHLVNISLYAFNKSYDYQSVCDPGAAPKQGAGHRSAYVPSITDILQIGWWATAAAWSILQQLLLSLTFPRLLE
T1 sequence (P54290 945-1091 partner limits assumed): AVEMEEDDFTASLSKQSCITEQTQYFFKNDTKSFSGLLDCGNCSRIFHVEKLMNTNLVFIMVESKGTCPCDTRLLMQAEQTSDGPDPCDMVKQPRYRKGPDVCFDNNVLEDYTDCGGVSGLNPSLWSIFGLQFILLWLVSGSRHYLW
T1 sequence (P54283 whole entry partner): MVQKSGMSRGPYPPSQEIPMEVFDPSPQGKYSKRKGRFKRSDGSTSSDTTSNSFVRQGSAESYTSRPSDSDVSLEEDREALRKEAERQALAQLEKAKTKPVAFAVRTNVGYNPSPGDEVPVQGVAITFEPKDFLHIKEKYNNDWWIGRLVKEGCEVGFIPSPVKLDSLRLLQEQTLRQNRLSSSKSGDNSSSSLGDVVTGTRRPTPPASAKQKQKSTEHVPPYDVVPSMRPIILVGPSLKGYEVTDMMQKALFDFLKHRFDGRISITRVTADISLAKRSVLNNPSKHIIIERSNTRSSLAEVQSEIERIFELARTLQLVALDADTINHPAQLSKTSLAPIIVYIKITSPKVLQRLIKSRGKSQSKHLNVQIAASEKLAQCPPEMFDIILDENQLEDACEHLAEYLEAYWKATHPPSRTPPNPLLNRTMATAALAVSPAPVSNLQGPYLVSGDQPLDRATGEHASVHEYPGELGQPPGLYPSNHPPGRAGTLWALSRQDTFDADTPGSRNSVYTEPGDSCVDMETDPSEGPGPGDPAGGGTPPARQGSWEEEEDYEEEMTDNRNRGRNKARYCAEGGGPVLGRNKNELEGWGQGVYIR
Description: Whole cell patch clamp, tonic and frequency dependent block, N-type channels in HEK 293 (Example 5). Conditions: for % Block (100 nM) 0.03 Hz: 0.03 Hz (tonic block); for % Block (100 nM) 0.2 Hz: 0.2 Hz (frequency dependent block). On the procedure: as §1, §2

The target of test [4] is T2, L-type channels (α1C+α2δ+β1b cDNA subunits) (UniProt P22002).
T2 construct: other: α1C (L-type), 100 nM, 0.03 Hz; other: α1C (L-type), 100 nM, 0.2 Hz; other: α1C (L-type), 0.03 Hz; other: α1C (L-type), 0.2 Hz
Description: Whole cell patch clamp, tonic and frequency dependent block, L-type channels in HEK 293 (Example 5). On the procedure: as §1, §2, §3

The test system of test [5] is L-type channels (α1C+α2δ+β1b cDNA subunits). The test is described as above. As to conditions: in general. On the procedure: as §1, §2, §3
[6] abbreviates: Table 4 summary, 0.2 Hz, P/Q-type, unit not given in Table 4 (μM in Table 2), read-out: P/Q (IC50 values).
The mark [7] stands for this setting: α1A (P/Q-type), 0.03 Hz, read-out: Estimated IC50 (μM) 0.03 Hz.
Where [8] appears, read: α1A (P/Q-type), 0.2 Hz, read-out: Estimated IC50 (μM) 0.2 Hz.
Where [9] appears, read: Table 4 summary, 0.2 Hz, N-type, unit not given in Table 4 (μM in Table 1), read-out: N (IC50 values).
Setting [10] is: α1B (N-type), 0.03 Hz, read-out: Estimated IC50 (μM) 0.03 Hz.
Setting [11] is: α1B (N-type), 0.2 Hz, read-out: Estimated IC50 (μM) 0.2 Hz.
[12] abbreviates: Table 4 summary, 0.2 Hz, L-type, unit not given in Table 4 (μM in Table 3), read-out: L (IC50 values).
Setting [13] is: α1C (L-type), 0.03 Hz, read-out: Estimated IC50 (μM) 0.03 Hz.
Setting [14] is: α1C (L-type), 0.2 Hz, read-out: Estimated IC50 (μM) 0.2 Hz.

Like-named read-outs stand apart in the source and are kept apart here.

Turning to `O=C(CCCCC(c1ccccc1)c1ccccc1)N1CCC(NCC2CCCCC2)CC1` [JM-G-10], in test [1], the “IC50 values on P/Q-type channels compared with N-type (in words)” value is “higher than those exhibited with respect to N-type channels”. In addition, the IC50 in test [2] (setting [6]) is 0.07 µM; in test [2] (setting [7]), 0.3 µM; in test [2] (setting [8]), 0.07 µM; in test [3] (setting [9]), 0.06 µM; in test [3] (setting [10]), 0.17 µM; in test [3] (setting [11]), 0.06 µM. Further, the results for the IC50 in test [4] (setting [12]), in test [4] (setting [13]) and in test [4] (setting [14]) were 0.3 µM, 1.17 µM and 0.3 µM, respectively. In addition, the “% Block (100 nM) 0.03 Hz” value in test [2] (α1A (P/Q-type), 0.03 Hz) is on record as 28%; in test [3] (α1B (N-type)), 38%; in test [4] (α1C (L-type), 0.03 Hz), 7%. The “% Block (100 nM) 0.2 Hz” value in test [2] (α1A (P/Q-type), 0.2 Hz) was 62%; in test [3] (α1B (N-type)), 63%; in test [4] (α1C (L-type), 0.2 Hz), 15%. Besides, the “N-type channel inhibition at higher frequencies (in words)” value in test [3] (0.2 Hz) was “most potent inhibitors at higher frequencies”. The “IC50 values on L-type channels compared with N-type (in words)” value in test [5] is “higher than those exhibited with respect to N-type channels”.
Take `O=C(CCCCC(c1ccccc1)c1ccccc1)N1CCN(C/C=C/c2ccccc2)CC1` [MC-34D]: the “IC50 values on P/Q-type channels compared with N-type (in words)” value in test [1] is reported as “higher than those exhibited with respect to N-type channels”. The IC50 is 0.08 µM in test [2] (setting [6]); 0.35 µM in test [2] (setting [7]); 0.08 µM in test [2] (setting [8]); 0.05 µM in test [3] (setting [9]); 0.12 µM in test [3] (setting [10]); 0.05 µM in test [3] (setting [11]). Further, the results for the IC50 in test [4] (setting [12]), in test [4] (setting [13]) and in test [4] (setting [14]) were 0.39 µM, 0.63 µM and 0.39 µM, respectively. Further, the “% Block (100 nM) 0.03 Hz” value in test [2] (α1A (P/Q-type), 0.03 Hz) stood at 31%; in test [3] (α1B (N-type)) it was 47%; in test [4] (α1C (L-type), 0.03 Hz) it was 14%. Also, the “% Block (100 nM) 0.2 Hz” value in test [2] (α1A (P/Q-type), 0.2 Hz) came out at 56%; in test [3] (α1B (N-type)), 73%; in test [4] (α1C (L-type), 0.2 Hz) it was 24%. Also, in test [3] (0.2 Hz), the “N-type channel inhibition at higher frequencies (in words)” value was “most potent inhibitors at higher frequencies”. The “IC50 values on L-type channels compared with N-type (in words)” value in test [5] was “higher than those exhibited with respect to N-type channels”.
